Source: patent publication US20140050779A1, “[…]-2 INHIBITORS AND USES THEREOF” (SINGAPORE HEALTH SERVICES PTE. LTD., priority 2011, published 2014)
Entries after “also recorded” stand apart in the source; their conditions may differ.

Tests used:
Format in all cases: cell-based
TG-2 [1] = assay: Western blot of TG proteins in mouse scleral fibroblasts after muscarinic agents
Protocol: (§1) All cells used in examples described herein were between passages 2-4. Passaged cells were plated at a concentration of 2×10^5/mL into 6 well plates containing DMEM with 10% FBS. The cells were seen to attach to the bottom of the culture wells after 4 hours. Old media was removed from wells and 1 mL of drug was added with fresh full medium and incubated at 37° C. Fresh drugs were replaced daily consecutively for the next 5 days to avoid oxidation. The drugs/media was removed and wells were washed twice with 1×PBS. 200 μl of RIPA lysis buffer was added per well and incubated for 5 minutes and cells were scrapped into an eppendorf tube. The cells were stored at −20° C. until sonication. The cells were sonicated on ice thrice at 20% output power for 5 seconds each time and rested 1 minute in between each turn. Cell debris was spun down at 12000 rpm for 20 minutes. The supernatant was poured into a new eppendorf tube and cell concentrations were determined using the Dc Protein assay Kit (Bio-Rad, MA). Passaged cells were plated at a concentration of 1×10^5 into 6 well plates containing DMEM with 10% FBS. The cells were seen to attach to the bottom of the culture wells after 4 hours. Freshly prepared muscarinic agents' at base line, 0.1, 1, 10 and 100 μM concentrations were added for 5 days (Table 2). The culture medium was removed and fresh medium containing the same muscarinic drug added every day to avoid drug changes such as atropine oxidation. Cell lysate was collected for relative quantitative (q) PCR and protein analysis at day 5.
(§2) The cells were lysed by sonification in 1×RIPA lysis buffer (santa cruz biotechnology, Sc-24948) with 10 μl PMSF solution, 10 μl sodium orthovanadate solution and 20 μl protease inhibitor cocktail solution. After centrifugation at 20,000×g at 4° C. for 20 minutes, and the supernatant collected. The protein content in the supernatants was measured using the DC Protein Assay kit (Bio-Rad, MA) following the manufacturer's instructions. Samples were stored at −80° C. until assayed.
(§3) The mouse and human scleral fibroblasts were treated with atropine or carbachol at 0.01, 0.1, 1, 5 and 10 μM concentrations for 5 days. Following 5 days of treatment, the total cellular protein was extracted from these cells and TG proteins detected via Western blot analysis.
Human and, mouse scleral fibroblast proteins in the supernatant were separated by SDS-PAGE, transferred to nitrocellulose membranes, blocked in 5% BSA in TBST (10 mM Tris-HCl [pH 8.0], 150 mM NaCl, and […] Tween-20) for 2 hours at room temperature, and incubated with the same anti-TG-2 antibody described herein at a dilution of 1:1000 and anti β-tubulin antibodies used as a positive control, for 1 hour at room temperature. The membranes were washed 3 times in TBST and incubated with HRP-conjugated secondary antibody (Chemicon International) at a dilution of 1:2500 for 1 hour at room temperature. Immunoreactive bands were visualized using the enhanced chemiluminescence method (GE Healthcare, Buckinghamshire, UK). The membrane was wrapped in plastic and placed against an X-ray film to expose for an appropriate length of time (30 seconds-5 minutes).

TG-2 [2] = assay: TG-2 colorimetric microassay (transamidase activity) in lysate of treated mouse scleral fibroblasts; conditions: for transamidase activity of endogenous cellular TG-2: mouse scleral fibroblasts, 0.1, 1, 10 and 100 μM for 5 days, concentration-dependent
Protocol: as §1, with “The cells were seen to attach to the bottom of the culture wells after 4 hours.” left out
(§4) This assay was designed to assess the cross-linking activity of TG-2 between two proteins. TG activity was measured with TG-2 colorimetric Microassay kit (TG-Covtest, Covalab, Cambridge, UK). 150-200 μg of total protein was used per well for the TG-2 assay. Transglutaminase standards (Sigma) were used as a positive control. EDTA was used to inhibit the enzyme activity as a negative control.
(§5) The approximate volume of reagents to use, the wavelengths to use to read absorbance, the incubation times were determined from a previous study that have carried out experiments with similar principles as described in Perez Alea M, Kitamura M, Martin G, Thomas V, Hitomi K, El Alaoui S., “Development of an isoenzyme-specific colorimetric assay for tissue transglutaminase 2 cross-linking activity”, Anal Biochem. 2009 Jun. 15; 389(2):150-6, Epub 2009 March 24. All reagents used and protein coated plates were part of the kit. Biotin cadaverine was reconstituted with 6 ml of deionized water and 90 μl was added into each well of the 96 well plate that comes coated with CBZ-GLN-GLY. The rest of the steps were followed as in the manufacturer's instructions and finally absorbance was read at 450 nm using a microplate reader (TECAN, Austria). All incubations were performed with gentle shaking on a laboratory orbital shaker.
(§6) The TG-2 colorimetric assay serves as a high throughput and quantitative assay to assess transamidase activity. […] In vivo studies with these drugs were also conducted to determine the effect on myopia development (see FIGS. 14 and 15).

TG-2 [3] = assay: Western blot of TG proteins in human scleral fibroblasts after muscarinic agents
Protocol: as §1, §2, §3
Human and, mouse scleral fibroblast proteins in the supernatant were separated by SDS-PAGE, transferred to nitrocellulose membranes, blocked in 5% BSA in TBST (10 mM Tris-HCl [pH 8.0], 150 mM NaCl, and […] Tween-20) for 2 hours at room temperature, and incubated with the same anti-TG-2 antibody described herein at a dilution of 1:1000 and anti β-tubulin antibodies used as a positive control, for 1 hour at room temperature. […]

TG-2 [4] = assay: TG-2 colorimetric microassay (transamidase activity) in lysate of treated human scleral fibroblasts; conditions: for transamidase activity of endogenous cellular TG-2: human scleral fibroblasts, 0.1, 1, 10 and 100 μM for 5 days, concentration-dependent
Protocol: as §1, with “The cells were seen to attach to the bottom of the culture wells after 4 hours.” left out
as §4, §5, §6

[5] = specific muscarinic antagonists
[6] = 0.01-10 μM for 5 days, Western blot

`C[C@@H]1OC(=O)[C@H]2C[C@H]3CCCC[C@@H]3[C@@H](/C=C/[C@H]3CCC[C@H](C)N3C)[C@@H]12` [himbacine] was tested, and the TG-2 protein level (TG-2 [1]; [5]) was “significantly reduced”, the “TG-2 activity, strongest reduction among the antagonists” value (TG-2 [2]; mouse scleral fibroblasts) was “most significantly reduced” and the “transamidase activity of endogenous cellular TG-2” value (from here on “transamidase activity”) (TG-2 [2]) was “reduced”. For the same compound, the “TG2 activity as compared to atropine” value (TG-2 [2]; mouse scleral fibroblasts, high concentration (100 μM)) was “most significantly reduced”, the TG-2 protein level (TG-2 [3]; [5]) was “significantly reduced” and the “transamidase activity” value (TG-2 [4]) was “reduced”. The “TG-2 activity, strongest reduction among the antagonists” value (TG-2 [4]; human scleral fibroblasts, all concentrations) was “most significantly reduced” and the “TG-2 activity as compared to atropine” value (TG-2 [4]; human scleral fibroblasts, himbacine 0.1, 1, 10 & 100 μM, darifenacin 0.1, 1 & 10 μM) was “more significantly reduced”.

`CN1[C@@H]2CC[C@H]1C[C@@H](OC(=O)C(CO)c1ccccc1)C2` (stereo partly shown) [atropine] was tested, and the TG-2 protein level (TG-2 [1]; [6]) was “reduced; also recorded: reduction”, the “TG-2 activity, strongest reduction” value (TG-2 [2]; mouse scleral fibroblasts, 0.1 μM, saturated at 1, 10 and 100 μM) was “most significantly reduced” and the “transamidase activity” value (TG-2 [2]) was “reduced”. For the same compound, the TG-2 protein level (TG-2 [3]; [6]) was “reduced” and the “transamidase activity” value (TG-2 [4]) was “reduced”.
